This data set can be described thus: Pharmacokinetics of SN-38 and SN-38G after i.v. dosing of SN-38 in 40% SBECD. In kind it is in vivo, Female Sprague-Dawley rats. As to conditions: rat, i.v. The method, then: Female Sprague-Dawley rats, 4 animals per group received i.v. injections of SN-38 (doses 0.65 mg/kg and 2 mg/kg) in 40% SBECD. The SN-38 solution for the treatment was prepared by the dilution of concentrated composition of the Example 1 with water. The blood plasma samples were collected from each group of animals, extracted using liquid extraction with cold methanol/acetonitrile mixture (1:1 v/v), and analyzed using a HPLC method with fluorescent detection. The results, including levels of SN-38 and SN-38G in plasma and calculated values of area under the curve (AUC) for SN-38 and SN-38G are presented in Tables 5 and 6 below.

Usually AUC stands for the area under the concentration-time curve, a measure of exposure. Read a low AUC as less exposure. Take `CCc1c2c(nc3ccc(O[C@@H]4O[C@H](C(=O)O)[C@@H](O)[C@H](O)[C@H]4O)cc13)-c1cc3c(c(=O)n1C2)COC(=O)[C@]3(O)CC` [SN-38G, SN-38 glucuronide]: the exposure (AUC) is, setting by setting: (dosing SN-38 0.65 mg/kg in 40% SBECD) 275 ng·h/mL; (dosing SN-38 2 mg/kg in 40% SBECD) 1085 ng·h/mL. For the same compound, the Plasma levels by setting is: (dosing SN-38 0.65 mg/kg in 40% SBECD, 0.17 h) 266.5 ng/mL; (dosing SN-38 0.65 mg/kg in 40% SBECD, 0.5 h) 150.7 ng/mL; (dosing SN-38 0.65 mg/kg in 40% SBECD, 0.75 h) 97.1 ng/mL; (dosing SN-38 0.65 mg/kg in 40% SBECD, 1 h) 61.5 ng/mL; (dosing SN-38 0.65 mg/kg in 40% SBECD, 3 h) 15.7 ng/mL; (dosing SN-38 0.65 mg/kg in 40% SBECD, 6 h) 6.0 ng/mL. Further, the Plasma levels is, setting by setting: (dosing SN-38 2 mg/kg in 40% SBECD, 0.17 h) 1282.0 ng/mL; (dosing SN-38 2 mg/kg in 40% SBECD, 0.5 h) 747.7 ng/mL; (dosing SN-38 2 mg/kg in 40% SBECD, 0.75 h) 289.8 ng/mL; (dosing SN-38 2 mg/kg in 40% SBECD, 1 h) 239.9 ng/mL; (dosing SN-38 2 mg/kg in 40% SBECD, 3 h) 27.6 ng/mL; (dosing SN-38 2 mg/kg in 40% SBECD, 6 h) 18.5 ng/mL.
